# Data as given in US20150197492A1, “NOVEL INDENO[1,2-c]QUINOLIN-11-ONE DERIVATIVES, PREPARATION METHOD AND APPLICATION THEREOF” (National Defense Medical Center, priority 2014, published 2015).
# How the values were obtained:
# Assay in all cases: cells
# Assay type in all cases: cell-based
# MOLT-4 = tested on: MOLT-4
# TK-10 = tested on: TK-10
# M14 = tested on: M14
# SK-OV-3 = tested on: SK-OV-3
# MDA-MB-468 = tested on: MDA-MB-468
# MDA-MB-435 = tested on: MDA-MB-435
# A549/ATCC = tested on: A549/ATCC
# SF-268 = tested on: SF-268
# UACC-62 = tested on: UACC-62
# MALME-3M = tested on: MALME-3M
# UACC-257 = tested on: UACC-257
# NCI-H322M = tested on: NCI-H322M
# RPMI-8226 = tested on: RPMI-8226
# OVCAR-5 = tested on: OVCAR-5
# PC-3 = tested on: PC-3
# MCF7 = tested on: MCF7
# UO-31 = tested on: UO-31
# SNB-75 = tested on: SNB-75
# OVCAR-8 = tested on: OVCAR-8
# ACHN = tested on: ACHN
# LOX IMVI = conditions: Melanoma LOX IMV1
# NCI-H522 = tested on: NCI-H522
# SNB-19 = tested on: SNB-19
# HCT-15 = tested on: HCT-15
# OVCAR-3 = OVCAR-3 (Ovarian Cancer), 10 μM, 48 hours
# CAKI-1 = tested on: CAKI-1
# HCC-2998 = tested on: HCC-2998
# OVCAR-4 = tested on: OVCAR-4
# MDA-MB-231/ATCC = tested on: MDA-MB-231/ATCC
# [1] = Homo sapiens, Non-Small Cell Lung Cancer A549/ATCC
# [2] = Homo sapiens, CNS Cancer SF-268
# [3] = Homo sapiens, Melanoma MALME-3M
# [4] = Homo sapiens, Breast Cancer MDA-MB-231/ATCC
smiles,measurement,setting,value
"CCN(CC)CCNc1nc2ccccc2c2c1-c1ccc(Cl)cc1C2=O [SJ-3, 6-(2-(Diethylamino)ethylamino)-9-chloro-11H-indeno[1,2-c]quinolin-11-one]",GI50,"MOLT-4; Homo sapiens, Leukemia MOLT-4",6.24 µM
same,LC50 (concentration killing 50% of cells),"MOLT-4; Homo sapiens, Leukemia MOLT-4",7.91 µM
same,TGI,MOLT-4; Leukemia MOLT-4,3.43 µM
same,growth percentage,"MOLT-4; MOLT-4 (Leukemia), 10 μM, 48 hours",34.63%
same,GI50,"TK-10; Homo sapiens, Renal Cancer TK-10",24.6 µM
same,CC50,"TK-10; Homo sapiens, Renal Cancer TK-10, read-out: LC50 (the source's name)",6.38 µM
same,TGI,TK-10; Renal Cancer TK-10,3.70 µM
same,growth percentage,"TK-10; TK-10 (Renal Cancer), 10 μM, 48 hours",95.55%
same,GI50,"M14; Homo sapiens, Melanoma M14",16.5 µM
same,CC50,"M14; Homo sapiens, Melanoma M14, read-out: LC50 (the source's name)",19.3 µM
same,growth percentage,"M14; M14 (Melanoma), 10 μM, 48 hours",76.44%
same,TGI,M14; Melanoma M14,5.48 µM
same,GI50,"SK-OV-3; Homo sapiens, Ovarian Cancer SK-OV-3",35.9 µM
same,CC50,"SK-OV-3; Homo sapiens, Ovarian Cancer SK-OV-3, read-out: LC50 (the source's name)",17.2 µM
same,TGI,SK-OV-3; Ovarian Cancer SK-OV-3,5.57 µM
same,growth percentage,"SK-OV-3; SK-OV-3 (Ovarian Cancer), 10 μM, 48 hours",84.20%
same,TGI,MDA-MB-468; Breast Cancer MDA-MB-468,3.07 µM
same,GI50,"MDA-MB-468; Homo sapiens, Breast Cancer MDA-MB-468",1.71 µM
same,growth percentage,"MDA-MB-468; MDA-MB-468 (Breast Cancer), 10 μM, 48 hours",33.81%
same,GI50,"MDA-MB-435; Homo sapiens, Melanoma MDA-MB-435",20.2 µM
same,CC50,"MDA-MB-435; Homo sapiens, Melanoma MDA-MB-435, read-out: LC50 (the source's name)",7.62 µM
same,growth percentage,"MDA-MB-435; MDA-MB-435 (Melanoma), 10 μM, 48 hours",92.72%
same,TGI,MDA-MB-435; Melanoma MDA-MB-435,3.86 µM
same,growth percentage,"A549/ATCC; A549/ATCC (Non-Small Cell Lung Cancer), 10 μM, 48 hours",51.79%
same,GI50,A549/ATCC; [1],15.2 µM
same,LC50 (50% lethal concentration),A549/ATCC; [1],6.72 µM
same,TGI,A549/ATCC; Non-Small Cell Lung Cancer A549/ATCC,3.51 µM
same,TGI,SF-268; CNS Cancer SF-268,3.27 µM
same,GI50,SF-268; [2],17.7 µM
same,LC50,SF-268; [2],6.52 µM
same,growth percentage,"SF-268; SF-268 (CNS Cancer), 10 μM, 48 hours",65.88%
same,GI50,"UACC-62; Homo sapiens, Melanoma UACC-62",14.8 µM
same,CC50,"UACC-62; Homo sapiens, Melanoma UACC-62, read-out: LC50 (the source's name)",6.68 µM
same,TGI,UACC-62; Melanoma UACC-62,3.31 µM
same,growth percentage,"UACC-62; UACC-62 (Melanoma), 10 μM, 48 hours",99.56%
same,GI50,MALME-3M; [3],17.3 µM
same,LC50 (concentration killing 50% of cells),MALME-3M; [3],7.46 µM
same,growth percentage,"MALME-3M; MALME-3M (Melanoma), 10 μM, 48 hours",52.55%
same,TGI,MALME-3M; Melanoma MALME-3M,3.83 µM
same,GI50,"UACC-257; Homo sapiens, Melanoma UACC-257",21.2 µM
same,CC50,"UACC-257; Homo sapiens, Melanoma UACC-257, read-out: LC50 (the source's name)",6.37 µM
same,TGI,UACC-257; Melanoma UACC-257,3.39 µM
same,growth percentage,"UACC-257; UACC-257 (Melanoma), 10 μM, 48 hours",92.18%
same,GI50,"NCI-H322M; Homo sapiens, Non-Small Cell Lung Cancer NCI-H322M",34.5 µM
same,CC50,"NCI-H322M; Homo sapiens, Non-Small Cell Lung Cancer NCI-H322M, read-out: LC50 (the source's name)",36.2 µM
same,growth percentage,"NCI-H322M; NCI-H322M (Non-Small Cell Lung Cancer), 10 μM, 48 hours",69.83%
same,TGI,NCI-H322M; Non-Small Cell Lung Cancer NCI-H322M,13.10 µM
same,GI50,"RPMI-8226; Homo sapiens, Leukemia RPMI-8226",20.2 µM
same,CC50,"RPMI-8226; Homo sapiens, Leukemia RPMI-8226, read-out: LC50 (the source's name)",9.73 µM
same,TGI,RPMI-8226; Leukemia RPMI-8226,4.31 µM
same,growth percentage,"RPMI-8226; RPMI-8226 (Leukemia), 10 μM, 48 hours",81.94%
same,GI50,"OVCAR-5; Homo sapiens, Ovarian Cancer OVCAR-5",21.5 µM
same,CC50,"OVCAR-5; Homo sapiens, Ovarian Cancer OVCAR-5, read-out: LC50 (the source's name)",6.52 µM
same,growth percentage,"OVCAR-5; OVCAR-5 (Ovarian Cancer), 10 μM, 48 hours",89.34%
same,TGI,OVCAR-5; Ovarian Cancer OVCAR-5,3.32 µM
same,GI50,"PC-3; Homo sapiens, Prostate Cancer PC-3",12.5 µM
same,CC50,"PC-3; Homo sapiens, Prostate Cancer PC-3, read-out: LC50 (the source's name)",8.98 µM
same,growth percentage,"PC-3; PC-3 (Prostate Cancer), 10 μM, 48 hours",41.01%
same,TGI,PC-3; Prostate Cancer PC-3,3.82 µM
same,TGI,MCF7; Breast Cancer MCF7,2.60 µM
same,GI50,"MCF7; Homo sapiens, Breast Cancer MCF7",0.44 µM
same,CC50,"MCF7; Homo sapiens, Breast Cancer MCF7, read-out: LC50 (the source's name)",5.54 µM
same,growth percentage,"MCF7; MCF7 (Breast Cancer), 10 μM, 48 hours",12.70%
same,GI50,"UO-31; Homo sapiens, Renal Cancer UO-31",3.61 µM
same,CC50,"UO-31; Homo sapiens, Renal Cancer UO-31, read-out: LC50 (the source's name)",6.48 µM
same,TGI,UO-31; Renal Cancer UO-31,2.88 µM
same,growth percentage,"UO-31; UO-31 (Renal Cancer), 10 μM, 48 hours",25.86%
same,TGI,SNB-75; CNS Cancer SNB-75,2.35 µM
same,GI50,"SNB-75; Homo sapiens, CNS Cancer SNB-75",3.25 µM
same,CC50,"SNB-75; Homo sapiens, CNS Cancer SNB-75, read-out: LC50 (the source's name)",4.86 µM
same,growth percentage,"SNB-75; SNB-75 (CNS Cancer), 10 μM, 48 hours",71.52%
same,GI50,"OVCAR-8; Homo sapiens, Ovarian Cancer OVCAR-8",13.8 µM
same,CC50,"OVCAR-8; Homo sapiens, Ovarian Cancer OVCAR-8, read-out: LC50 (the source's name)",7.76 µM
same,growth percentage,"OVCAR-8; OVCAR-8 (Ovarian Cancer), 10 μM, 48 hours",61.36%
same,TGI,OVCAR-8; Ovarian Cancer OVCAR-8,3.63 µM
same,growth percentage,"ACHN; ACHN (Renal Cancer), 10 μM, 48 hours",55.86%
same,GI50,"ACHN; Homo sapiens, Renal Cancer ACHN",6.44 µM
same,CC50,"ACHN; Homo sapiens, Renal Cancer ACHN, read-out: LC50 (the source's name)",5.89 µM
same,TGI,ACHN; Renal Cancer ACHN,3.04 µM
same,GI50,"LOX IMVI; Homo sapiens, LOX IMVI",6.04 µM
same,CC50,"LOX IMVI; Homo sapiens, LOX IMVI, read-out: LC50 (the source's name)",6.02 µM
same,TGI,LOX IMVI,3.04 µM
same,GI50,"NCI-H522; Homo sapiens, Non-Small Cell Lung Cancer NCI-H522",27.6 µM
same,CC50,"NCI-H522; Homo sapiens, Non-Small Cell Lung Cancer NCI-H522, read-out: LC50 (the source's name)",7.23 µM
same,growth percentage,"NCI-H522; NCI-H522 (Non-Small Cell Lung Cancer), 10 μM, 48 hours",77.39%
same,TGI,NCI-H522; Non-Small Cell Lung Cancer NCI-H522,3.80 µM
same,TGI,SNB-19; CNS Cancer SNB-19,3.42 µM
same,GI50,"SNB-19; Homo sapiens, CNS Cancer SNB-19",18.2 µM
same,growth percentage,"SNB-19; SNB-19 (CNS Cancer), 10 μM, 48 hours",94.02%
same,TGI,HCT-15; Colon Cancer HCT-15,3.51 µM
same,growth percentage,"HCT-15; HCT-15 (Colon Cancer), 10 μM, 48 hours",50.38%
same,GI50,"HCT-15; Homo sapiens, Colon Cancer HCT-15",4.37 µM
same,CC50,"HCT-15; Homo sapiens, Colon Cancer HCT-15, read-out: LC50 (the source's name)",7.5 µM
same,growth percentage,OVCAR-3,73.13%
same,growth percentage,"CAKI-1; CAKI-1 (Renal Cancer), 10 μM, 48 hours",64.35%
same,GI50,"CAKI-1; Homo sapiens, Renal Cancer CAKI-1",14.8 µM
same,CC50,"CAKI-1; Homo sapiens, Renal Cancer CAKI-1, read-out: LC50 (the source's name)",6.8 µM
same,TGI,CAKI-1; Renal Cancer CAKI-1,3.26 µM
same,TGI,HCC-2998; Colon Cancer HCC-2998,4.08 µM
same,growth percentage,"HCC-2998; HCC-2998 (Colon Cancer), 10 μM, 48 hours",88.65%
same,GI50,"HCC-2998; Homo sapiens, Colon Cancer HCC-2998",> 100 µM
same,CC50,"HCC-2998; Homo sapiens, Colon Cancer HCC-2998, read-out: LC50 (the source's name)",7.94 µM
same,GI50,"OVCAR-4; Homo sapiens, Ovarian Cancer OVCAR-4",2.99 µM
same,CC50,"OVCAR-4; Homo sapiens, Ovarian Cancer OVCAR-4, read-out: LC50 (the source's name)",5.68 µM
same,growth percentage,"OVCAR-4; OVCAR-4 (Ovarian Cancer), 10 μM, 48 hours",52.50%
same,TGI,OVCAR-4; Ovarian Cancer OVCAR-4,2.79 µM
same,TGI,MDA-MB-231/ATCC; Breast Cancer MDA-MB-231/ATCC,2.71 µM
same,GI50,MDA-MB-231/ATCC; [4],2.23 µM
same,LC50 (concentration giving 50% net cell kill),MDA-MB-231/ATCC; [4],5.7 µM
same,growth percentage,"MDA-MB-231/ATCC; MDA-MB-231/ATCC (Breast Cancer), 10 μM, 48 hours",25.16%
